The text below walks through data of patent US9714260B2, “Asymmetrical Si rhodamine and rhodol synthesis” (THE UNIVERSITY OF TOKYO, priority 2013, dated 2017).

Data set [1] in a line: Absorbance and fluorescence profiles of Compounds 1-4 in pH 7.4 sodium phosphate. The note with it: pH 7.4 sodium phosphate buffer solution; for Absmax / Emmax / ε: 0.1% DMSO; for Φfl: cresyl violet in methanol as fluorescence reference. The class given is physicochemical. The method, then: Absorbance and fluorescence profiles of 2-MeSiR620 (Compound 1) obtained in step (f) and 2-MeSiR620-a1 (Compound 2) obtained in step (i) were measured. Measurements were carried out in an aqueous solution of 0.1M sodium phosphate having a pH 7.4 and containing 0.1% DMSO. The wavelength of the excitation light in the fluorescence profile measurement was 620 nm for 2-MeSiR620 and 635 nm for 2-MeSiR620-a1.
The absorbance and fluorescence spectra of 2-MeSiR630 (Compound 3) synthesized in step (b) and 2-MeSiR630-a1 (Compound 4) synthesized in step (d) were measured. Measurements were carried out in an aqueous solution of 0.1 sodium phosphate having a pH 7.4 and containing 0.1% DMSO. The excitation light in the fluorescence spectrum measurement was 633 nm for 2-MeSiR630 and 648 nm for 2-MeSiR630-a1.

Data set [2] is described as follows: Fluorescence quantum yield of Compound 5 in various solvents. The format is physicochemical.
Data set [3] is described as follows: Optical characteristics of Compound 5 in pH 7.4 sodium phosphate. The format is physicochemical. The note with it: 0.1 sodium phosphate pH 7.4, 0.3% DMSO. The method, then: The fluorescence wavelength was 665 nm and the wavelength of the excitation light was 637 nm. The measurement was carried out in an aqueous solution of 0.1 sodium phosphate having a pH 7.4 and containing 0.3% DMSO. Cy 5.5 (ΦFl=0.23) in water was used as the fluorescence reference to determine the fluorescence quantum yield.

Data set [4] in a line: Optical characteristics of dyes in phosphate buffered saline of pH 7.4. The class given is physicochemical.
Data set [5] in a line: Absorbance and fluorescence of Compound 6 in various solvents. The class given is physicochemical. The method, then:
Next, the absorbance and fluorescence spectra of Ac-IndoSiR (Compound 6) in various solvents were measured. […] The excitation wavelength was 540 nm. The maximum absorbance fluorescence wavelength, molar absorbance coefficient, and fluorescence quantum yield of Compound 6 in various solvents are shown in Table 5. The fluorescence quantum yield (ΦFl=0.44; determined using an absolute fluorescence quantum yield measurement device) of Compound 6 in chloroform was used as the fluorescence reference to determine the fluorescence quantum yield in various solvents.

Data set [6] in a line: Optical characteristics / pH profile of Si-Rhodol (Compound 7). The class given is physicochemical. The method, then:
The pH profile of the absorbance and fluorescence spectra of Si-Rhodol (Compound 7) was examined. Measurement was carried out at various pH in 0.1M sodium phosphate solution containing 1% DMSO. The excitation wavelengths were 507 nm (FIG. 13) and 584 nm (FIG. 14).

Data set [7] is described as follows: Optical characteristics / pH profile of O-Me-Si-Rhodol (Compound 8). The format is physicochemical. The protocol: The pH profile of the absorbance and fluorescence spectra of O-Me-Si-Rhodol (Compound 8) was examined. Measurement was carried out at various pH levels in 0.1M sodium phosphate solution containing 10% DMSO. The excitation wavelength was 503 nm.

A short description of data set [8]: Optical characteristics / pH profile of N-AcSi-Rhodol (Compound 9). The class given is physicochemical. The method, then:
Measurement was carried out at various pH in 0.1M sodium phosphate solution containing 10% DMSO. The excitation wavelength was 503 nm.

Another data set concerns rat liver microsomes. In words: In vitro experiment using rat liver microsomes (hypoxia vs normal oxygen). The format is biochemical. The note with it: 1 μM compound, 226 μg rat liver microsomes, 50 μM NADPH; ex 640 nm, em 660 nm. From the text:
The excitation wavelength was 640 nm and the fluorescence wavelength was 660 nm. In FIG. 26, Hyp is the measurement result for hypoxia and Nor is the measurement result for normal oxygen level.
(In general: Liver microsomes are a subcellular fraction often used to study metabolism.)

For data set [9] the following is noted: in water; cited from earlier work.
The conditions of data set [10]: in methanol; cited from earlier work.
[11] abbreviates: 0.1M sodium phosphate, 10% DMSO.
Setting [12] is: 0.1M sodium phosphate, 10% DMSO, excitation 503 nm.

With 2-MeSiR620 [Compound 1], in data set [1], the Absmax is reported as 620 nm, the Emmax was 638 nm, the ε is 96,000 M^−1cm^−1 and the Φfl is given as 0.21.

With `CNc1ccc2c(c1)[Si](C)(C)C1=CC(=[N+](C)C)C=CC1=C2c1ccccc1C` [Compound 3, 2-MeSiR630], in data set [1], the Absmax was determined as 633 nm, the Emmax worked out at 649 nm, the ε was 120,000 M^−1cm^−1 and the Φfl is 0.11.

With `Cc1ccccc1C1=C2C=CC(=[N+](C)C)C=C2[Si](C)(C)c2cc(N(C)CCCC(=O)O)ccc21` [Compound 4, 2-MeSiR630-a1], in [1], the Absmax is recorded as 648 nm, the Emmax amounted to 666 nm, the ε is 140,000 M^−1cm^−1 and the Φfl came to 0.30.

Regarding `Cc1ccccc1C1=c2cc3c(cc2[Si](C)(C)c2cc(N)ccc21)=[N+](C)CC3` [Compound 5, 2MeIndoSiR], the “Fluorescence quantum yield ΦF1” value in [2] (20% FBS) amounted to 0.36; in [2] (Acetone), 0.39; in data set [2] (CH3CN), 0.42; in [2] (CHCl3) it was 0.89; in [2] (DMF), 0.39; in data set [2] (DMSO), 0.35. Further, the entries for the “Fluorescence quantum yield ΦF1” value in data set [2] (FBS) and in [2] (MeOH) were 0.35 and 0.46, respectively. Further, the ε in data set [3] worked out at 54000 M⁻¹ cm⁻¹. Also, the λem in [3] worked out at 665 nm. The λex in data set [3] came to 641 nm. Further, the Φfl in [3] (Cy 5.5 in water as reference) is on record as 0.18. For the same compound, the “Φn (absolute fluorescence quantum yield measured using integrating spheres)” value in [4] is 0.14. Further, the λabs. max in [4] is given as 637 nm. Moreover, the λfl. max in data set [4] is recorded as 664 nm.

On to `CC(=O)Nc1ccc2c(c1)[Si](C)(C)c1cc3c(cc1=C2c1ccccc1C)CC[N+]=3C` [Compound 6, Ac-IndoSiR], for which the Absmax in data set [5] (Acetone) is given as 532 nm; in data set [5] (Benzene) it was 644 nm; in data set [5] (CH2Cl2) it was 552 nm; in data set [5] (CH3CN) it was 529 nm; in data set [5] (CHCl3), 623 nm; in data set [5] (DMF), 536 nm. The Absmax in [5] (DMSO) was 534 nm; in [5] (MeOH) it was 526 nm; in data set [5] (NaPi buffer (pH 7.4)) it was 500 nm; in data set [5] (THF) it was 559 nm; in data set [5] (Toluene), 644 nm. Also, the Emmax in [5] (Acetone) was found to be 641 nm; in data set [5] (Benzene), 665 nm; in data set [5] (CH2Cl2), 641 nm; in data set [5] (CH3CN), 636 nm; in data set [5] (CHCl3), 652 nm; in [5] (DMF) it was 645 nm. The Emmax in data set [5] (DMSO) came to 651 nm; in data set [5] (MeOH), 637 nm; in data set [5] (NaPi buffer (pH 7.4)), 630 nm; in [5] (THF) it was 654 nm; in data set [5] (Toluene), 665 nm. Moreover, the ΦFl was determined as 0.15 in [5] (Acetone); 0.26 in data set [5] (Benzene); 0.27 in data set [5] (CH2Cl2); 0.16 in [5] (CH3CN); 0.44 in data set [5] (CHCl3, absolute fluorescence quantum yield measurement device); 0.19 in [5] (DMF). Also, the ΦFl in [5] (DMSO) came to 0.12; in data set [5] (MeOH) it was 0.10; in data set [5] (NaPi buffer (pH 7.4)) it was 0.06; in data set [5] (THF) it was 0.18; in data set [5] (Toluene), 0.31. Besides, the ε is recorded as 27,000 M^−1cm^−1 in data set [5] (Acetone); 34,000 M^−1cm^−1 in data set [5] (Benzene); 33,000 M^−1cm^−1 in data set [5] (CH2Cl2); 29,000 M^−1cm^−1 in data set [5] (CH3CN); 36,000 M^−1cm^−1 in [5] (CHCl3); 9,000 M^−1cm^−1 in [5] (DMF). For the same compound, the ε is 30,000 M^−1cm^−1 in data set [5] (DMSO); 27,000 M^−1cm^−1 in data set [5] (MeOH); 29,000 M^−1cm^−1 in data set [5] (NaPi buffer (pH 7.4)); 21,000 M^−1cm^−1 in data set [5] (THF); 32,000 M^−1cm^−1 in [5] (Toluene).

As for `Cc1ccccc1C1=C2C=CC(=O)C=C2[Si](C)(C)c2cc(N)ccc21` [Compound 7, Si-Rhodol], in data set [6] (0.1M sodium phosphate, 1% DMSO), the ε was 40,000 M^−1cm^−1 and the λem turned out to be 605 nm. In addition, the “absorption maximum (FIG. 14)” value in [6] (FIG. 14, excitation wavelength 584 nm) was ~600 nm. In [6] (pH: 3.0), the Φfl is 0.28 (pH: 3.0) and the λabs is listed as 507 (pH: 3.0) nm. In data set [6] (pH: 7.4), the Φfl was 0.56 (pH: 7.4) and the λabs is 584 (pH: 7.4) nm. For the same compound, the λabs in [6] (pH: 7.4, listed as Si-Rhodol) is recorded as ~580 nm.

Turning to `COc1ccc2c(c1)[Si](C)(C)C1=CC(=N)C=CC1=C2c1ccccc1C` [Compound 8, O-MeSi-Rhodol], the λabs is 503 nm in data set [7] (setting [11]) and ~500 nm in data set [7] (0.1M sodium phosphate, 10% DMSO, listed as O-MeSi-Rhodol). Besides, in data set [7] (setting [12]), the λem is 580 nm. Further, the “absorption maximum (FIG. 16)” value in [7] (FIG. 16) is recorded as ~600 nm. Besides, the ΦFL in data set [7] (pH: 3.0) is 0.24 (pH: 3.0); in [7] (pH: 7.4), 0.18 (pH: 7.4).

Consider `CC(=O)Nc1ccc2c(c1)[Si](C)(C)C1=CC(=O)C=CC1=C2c1ccccc1C` [Compound 9, N-AcSi-Rhodol], for which the λabs in data set [8] (setting [11]) is on record as 455 nm; in [8] (0.1M sodium phosphate, 10% DMSO, listed as N-AcSi-Rhodol), ~450 nm. The compound also gave a λem in [8] (setting [12]) of 590 nm. For the same compound, the ΦFL in data set [8] (pH: 7.4) is given as 0.17 (pH: 7.4). For the same compound, the ε in [8] (pH: 10.0) is recorded as 7000 (pH: 10.0) M^−1cm^−1.

In the case of `Cc1ccccc1C1=c2cc3c(cc2[Si](C)(C)c2cc(/N=N/c4ccc(N(C)C)cc4)ccc21)=[N+](C)CC3` [Compound 11, 2MeazoSiR650], the “change in fluorescence intensity in a hypoxic environment” value in the data set with rat liver microsomes is “dramatic increase in fluorescence intensity”. Further, in [4], the “Φn (absolute fluorescence quantum yield measured using integrating spheres)” value is <0.001 and the λabs. max is listed as 590 nm.

On to `Cc1cccc(C)c1C1=c2cc3c(cc2[Si](C)(C)c2cc(N)ccc21)=[N+](C)CC3` [Compound 13, diMeSiR650], for which, in [4], the “Φn (absolute fluorescence quantum yield measured using integrating spheres)” value came to 0.15, the λabs. max turned out to be 637 nm and the λfl. max was 670 nm.

Regarding `Cc1cccc(C)c1C1=c2cc3c(cc2[Si](C)(C)c2cc(/N=N/c4ccc(N(C)C)cc4)ccc21)=[N+](C)CC3` [Compound 14, diMeazoSiR650], the “change in fluorescence intensity in a hypoxic environment” value in the data set on rat liver microsomes is “dramatic increase in fluorescence intensity”. Further, in [4], the “Φn (absolute fluorescence quantum yield measured using integrating spheres)” value is given as 0.002 and the λabs. max came out at 587 nm.

`CCN1\C(=C/C=C/C=C/C2=[N+](CCCCCC(=O)O)c3ccc4c(S(=O)(=O)O)cc(S(=O)(=O)O)cc4c3C2(C)C)C(C)(C)c2c1ccc1c(S(=O)(=O)[O-])cc(S(=O)(=O)O)cc21` [Cy 5.5]: the “ΦFl of fluorescence reference” value in [9] was 0.23.

For the compound Cresyl violet, in [10], the “Φfl of fluorescence reference” value was “^bCresyl violet in methanol (Φfl = 0.54) was used as the fluorescence reference”.
